Results as given in patent publication US20210060550A1, “DEVICES AND METHODS FOR DETECTION OF MICROORGANISMS” (MICROBIOSENSOR LIMITED, priority 2017, published 2021).

Key:
[1] = tested on: K. pneumoniae; experiment: Test D: antibiotic sensitivity in contaminated urine, tetrazolium violet colour change; assay type: cell-based; conditions: urine with 10^5 cfu/mL K. pneumoniae, 37° C. 10 hours; μg/ml: nitrofurantoin 64, pivmecillinam 4, trimethoprim 8, cephalexin 32, ciprofloxacin 0.25
Method: Each test tube contained 0.04 mg tetrazolium violet, 6.6 mg Wilkins Chalgren media. The test chambers also contained an amount of antibiotic compound as indicated in the tables below (as concentration in final volume of urine).
For each example, 0.2 mL of a urine sample was contaminated with 10^5 cfu/mL of the specified bacteria was poured into each test tube. The resultant composition was incubated at 37° C. for 10 hours. FIGS. 3A to 3F show the test tubes after the incubation period.

[2] = tested on: P. aeruginosa; experiment: Test A: antibiotic sensitivity in contaminated urine, tetrazolium violet colour change; assay type: cell-based; conditions: urine with 10^5 cfu/mL P. aeruginosa, 37° C. 10 hours; μg/ml: nitrofurantoin 64, pivmecillinam 4, trimethoprim 1, cephalexin 16, ciprofloxacin 0.25

COc1cc(Cc2cnc(N)nc2N)cc(OC)c1OC [trimethoprim]
infection treatable or resistant (FIG. 4D) [1]: can be treated

O=C(O)c1cn(C2CC2)c2cc(N3CCNCC3)c(F)cc2c1=O [ciprofloxacin]
infection treatable or resistant (FIG. 4A) [2]: can be treated | infection treatable or resistant (FIG. 4D) [1]: can be treated
